This note sets out measurements from patent publication US20230192705A1, “SHP2 INHIBITORS, COMPOSITIONS AND USES THEREOF” (Betta Pharmaceuticals Co., Ltd, priority 2020, published 2023).

Data set [1] in a line: In vitro metabolic stability in rat liver microsome. It counts as in vitro ADME. The conditions noted are these: rat liver microsomes. Here is the method:
(§1) 1900 mg MgCl2 was dissolved into a final volume of 400 mL ultra-pure water.
(§2) 17.42 g K2HPO4 and 13.65 g KH2PO4 were dissolved into a final volume of 1000 mL ultra-pure water, respectively. K2HPO4 and KH2PO4 were mixed to prepare 100 mM potassium phosphate (PBS) buffer. The pH value of the final solution was adjusted to pH 7.30±0.10.
(§3) Cold ACN (including 10 ng/mL Labetalol and 10 ng/mL Glibenclamid) was stored at 4° C.
(§4) Working Solution Preparation:
(§5) Verapamil (positive control) and test compound stock solution were diluted into a concentration of 50 μM and 200 μM respectively, using MeOH/ACN/H2O solution (1:1:2, v/v/v).
(§6) 1) 40 μL MgCl2 and 306 μL PBS were added to 96 plate wells (blank, compound wells, compounds without NADPH wells)
(§7) 2) 4 μL compound working solution was added to above wells (blank: 4 μL PBS buffer) (Note: the volume of DMSO in final incubation system ≤0.5%)
(§8) 3) 10 μL microsomes (20 mg/mL) was added in each well. The mixture was warmed up for 10 minutes at 37.0° C.
(§9) 4) 40 μL 10 mM NADPH working solution was added to start reaction. The total volume was 400 μL.
(§10) 5) Aliquots of 50 μL samples were taken from the reaction solution at 0, 5, 15, 45 min. The reaction solutions were stopped by the addition of 400 μL stop solution.
(§11) 6) The sampling plates were shaked for approx. 5 min.
(§12) 7) Samples were centrifuged at 3200 rcf for 10 min. then transferred 50 μL to a new plate dilute with 200 μL H2O for LC/MS/MS analysis.
(§13) Use equation of first order kinetics to calculate t1/2 and CL: […]
(§14) Where k represents elimination constant, which is calculated from a log linear plot of % Remaining versus time. t1/2 represents the half-life. Cprotein is the concentration of liver microsomes.
On the technique in general: Liver microsomes are a subcellular fraction often used to study metabolism.

A short description of data set [2]: In vitro metabolic stability in human liver microsome. It counts as in vitro ADME. Conditions: human liver microsomes. Here is the method:
as §1, §2, §3, §4, §5, §6, §7, §8, §9, §10, §11, §12, §13, §14

The target in data set [3] is T1, hERG channel (Homo sapiens, UniProt Q12809).
T1 construct: expressed in transfected cells; host or cells: HEK-293
As to the kind of experiment: Patch clamp assay to test the effect of compound on hERG channel. Conditions: manual patch clamp, HEK 293 cells expressed with hERG, concentration for half maximum effect. Format: cell-based. On the procedure:
10 mL extracellular solution was used to dilute the stock solution, making the final concentrations of test compound were 0.3 μM, 1 μM, 3 μM, 10 μM and 30 μM.
The solubility of compound was visually observed.
The cell line was derived from HEK-293 cells, and grown in a humidified environment at 37° C. under 5% CO2, using the media formulation below. The cell line should not be allowed to exceed 80% confluence within the culture vessel to prevent contact inhibition causing senescence and should thus be passaged every 3/4 days using a seeding density of 2*10^6 cells per T175 flask. Cell lines were be pre-washed with phosphate buffered saline before harvesting with Trypsin/EDTA and seeded into new flasks.
HEK 293 cells expressed with hERG were plated on cover slips overnight with the cell density less than 50% of confluence. Cells used for electrophysiological study were transferred to a small cell bath (1 mL) mounted on the stage of an inverted microscope (Diaphot, Nikon) and were perfused with external solution containing (in mM) 130 NaCl, 4 KCl, 1.8 CaCl2), 1 MgCl2, 10 glucose and 10 HEPES (pH 7.4 with NaOH), the perfusion rate was 4 mL/min. The internal pipette solution contained (in mM) 130 KCl, 1 MgCl2, 5 ethylene glycol-bis(baminoethyl ether)-N,N,N8,N8-tetraacetic acid, 5 MgATP and 10 HEPES (pH 7.2 with KOH). An HEKA EPC-10 patch-clamp amplifier and PATCHMASTER acquisition program were used to record membrane currents (HEKA Instruments IncD-67466 Lambrecht/Pfalz Germany). All experiments were performed at room temperature (22-23° C.).
The Model P-97 micropipette puller (Sutter Instrument Company, One Digital Drive, Novato, Calif. 94949) was used to pull glass patch pipettes (BF150-86-10) in all experiments.
The experiments were initiated with a 2 min vehicle control period after forming a whole cell configuration with less 5% run-down in 5 min and the tail currents in the report were at least greater than 500 pA. After a 2 min vehicle control period, the perfusion was switched to the reservoir containing the compound at the first concentration. The same procedure was repeated 3-5 times so that each cell was exposed to 4-6 escalating concentrations of compound. The time courses for block and unblock of hERG during compounds exposure and washout were continuously recorded.
The peak tail of hERG was generated by applying 2-sec depolarizing every 12 sec steps from a holding potential of −80 mV, the peak of tail currents were measured at a 5-sec repolarizing pulse at −50 mV.
hERG peak tail currents were directly measured from a 5 sec repolarization pulse at −50 mV. The fraction of control current was plotted as a function of logarithm of compound concentration. To determine the concentration of compound for halfmaximum effect, the concentration-response curve was fitted by Hill equation as shown follow.
where Y is the observed value, Bottom is the lowest observed value (0), Top is the highest observed value (1), and the Hillcoefficient gives the largest absolute value of the slope of the curve.
Data were analyzed by a combination of PATCHMASTER ((HEKA Instruments IncD-67466 Lambrecht/Pfalz Germany) and Origin (OriginLab Corporation, Northampton, Mass.) software programs.
Data were expressed as mean±SEM.

Data set [4] concerns the target T2, SHP2 (Homo sapiens, UniProt Q06124).
T2 sequence (Q06124 1-593): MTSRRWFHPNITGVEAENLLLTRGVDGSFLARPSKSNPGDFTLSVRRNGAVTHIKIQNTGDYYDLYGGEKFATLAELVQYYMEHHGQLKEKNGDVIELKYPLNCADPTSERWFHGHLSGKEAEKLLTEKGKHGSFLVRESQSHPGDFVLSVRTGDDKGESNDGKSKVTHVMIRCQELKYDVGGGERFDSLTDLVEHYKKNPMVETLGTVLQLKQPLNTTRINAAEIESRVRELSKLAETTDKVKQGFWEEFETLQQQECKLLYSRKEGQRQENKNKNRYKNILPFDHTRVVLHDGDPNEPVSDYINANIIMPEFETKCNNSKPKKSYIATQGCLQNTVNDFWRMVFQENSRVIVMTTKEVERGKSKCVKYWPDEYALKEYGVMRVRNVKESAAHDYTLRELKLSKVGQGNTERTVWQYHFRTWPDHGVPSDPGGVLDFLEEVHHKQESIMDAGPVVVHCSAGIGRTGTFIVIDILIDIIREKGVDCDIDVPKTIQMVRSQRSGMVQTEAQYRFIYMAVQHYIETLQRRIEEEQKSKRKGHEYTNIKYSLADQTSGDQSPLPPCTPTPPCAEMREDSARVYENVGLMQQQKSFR
The data set can be described thus: SHP2 allosteric inhibitor enzyme activity assay (DiFMUP fluorescence). Format: biochemical. Summed up:
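SHP2 activated by 0.5 μM IRS1_pY1172(dPEG8)pY1222 peptide, 0.2 ng enzyme per well, 1 h at room temperature with compound (1 μM top, 3-fold series), then DiFMUP substrate 1 h. Buffer: 60 mM HEPES, 75 mM NaCl, 75 mM KCl, 0.05% BRIJ-35, 1 mM EDTA, 5 mM DTT. Fluorescence ex 340/em 450 nm; IC50 by variable-slope fit.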

pIC50: −log10 of the molar value.

T1 sequence (Q12809 whole entry): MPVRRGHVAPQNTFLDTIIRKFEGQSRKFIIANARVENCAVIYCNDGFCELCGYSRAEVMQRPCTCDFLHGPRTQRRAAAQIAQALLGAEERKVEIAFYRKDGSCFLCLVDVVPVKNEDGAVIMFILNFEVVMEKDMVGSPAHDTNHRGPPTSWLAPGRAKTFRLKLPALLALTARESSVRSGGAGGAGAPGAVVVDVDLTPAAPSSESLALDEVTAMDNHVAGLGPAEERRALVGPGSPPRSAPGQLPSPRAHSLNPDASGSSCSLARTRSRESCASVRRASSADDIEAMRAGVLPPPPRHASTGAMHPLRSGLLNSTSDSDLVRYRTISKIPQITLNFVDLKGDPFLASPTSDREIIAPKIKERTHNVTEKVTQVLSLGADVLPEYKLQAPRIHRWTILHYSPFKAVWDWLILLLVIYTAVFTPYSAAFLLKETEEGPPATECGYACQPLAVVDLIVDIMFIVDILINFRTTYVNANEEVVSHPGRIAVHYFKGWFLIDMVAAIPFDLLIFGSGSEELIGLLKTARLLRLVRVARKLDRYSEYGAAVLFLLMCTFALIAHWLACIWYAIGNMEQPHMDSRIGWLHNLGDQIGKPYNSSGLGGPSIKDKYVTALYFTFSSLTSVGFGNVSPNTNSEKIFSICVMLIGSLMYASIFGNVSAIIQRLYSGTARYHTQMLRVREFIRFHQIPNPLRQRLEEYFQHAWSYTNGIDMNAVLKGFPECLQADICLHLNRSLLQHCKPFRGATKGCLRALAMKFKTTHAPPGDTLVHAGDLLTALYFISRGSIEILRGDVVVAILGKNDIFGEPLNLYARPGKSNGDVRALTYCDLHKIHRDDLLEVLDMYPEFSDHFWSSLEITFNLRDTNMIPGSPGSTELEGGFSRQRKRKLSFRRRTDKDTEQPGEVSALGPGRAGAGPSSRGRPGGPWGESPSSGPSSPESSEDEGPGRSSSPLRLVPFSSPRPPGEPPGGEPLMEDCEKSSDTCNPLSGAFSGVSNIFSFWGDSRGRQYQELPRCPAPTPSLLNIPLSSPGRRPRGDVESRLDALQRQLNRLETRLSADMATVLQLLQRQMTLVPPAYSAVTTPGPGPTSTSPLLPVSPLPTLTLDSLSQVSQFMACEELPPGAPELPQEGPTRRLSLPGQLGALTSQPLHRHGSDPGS

The pIC50 is the negative decadic logarithm of the IC50, by convention in mol/L. Turning to `Cn1c(N2CCC3(CC2)Cc2ccccc2[C@H]3N)nc2[nH]nc(Sc3cccc(Cl)c3Cl)c2c1=O` [Comparative compound 1, reference compound], in data set [1], the “CLint Rat” value turned out to be 89.9 μL/min/mg proteins. The “CLint Human” value in data set [2] is on record as 171.8 μL/min/mg proteins. Moreover, the negative logarithm of the IC50 (pIC50) in data set [3] is 7.05.

On to `N[C@@H]1c2ccccc2CC12CCN(c1nc3[nH]nc(C4(Cc5ccccc5)CC4)c3c(=O)[nH]1)CC2` [Example 74], for which, in data set [1], the “CLint Rat” value amounted to 102.0 μL/min/mg proteins. The “CLint Human” value in data set [2] turned out to be 182.7 μL/min/mg proteins. In addition, the negative-log IC50 (pIC50) in data set [3] was 5.74.

`CC(C)(c1ccccc1)c1n[nH]c2nc(N3CCC4(CC3)Cc3ccccc3[C@H]4N)[nH]c(=O)c12` [Example 216, (S)-6-(1-amino-1,3-dihydrospiro[indene-2,4′-piperidin]-1′-yl)-3-(2-phenylpropan-2-yl)-1,5-dihydro-4H-pyrazolo[3,4-d]pyrimidin-4-one]: the “CLint Rat” value in data set [1] was 32.5 μL/min/mg proteins. The pIC50 in data set [4] (numeric values) is 8.96. In addition, the “CLint Human” value in data set [2] is recorded as 50.0 μL/min/mg proteins.

As for `N[C@@H]1c2ccccc2CC12CCN(c1nc3[nH]nc(C4(c5ccc(OC(F)(F)F)cc5)CC4)c3c(=O)[nH]1)CC2` [Example 233, (S)-6-(1-amino-1,3-dihydrospiro[indene-2,4′-piperidin]-1′-yl)-3-(1-(4-(trifluoromethoxy)phenyl)cyclo-propyl)-1,5-dihydro-4H-pyrazolo[3,4-d]pyrimidin-4-one], in data set [1], the “CLint Rat” value amounted to 3.4 μL/min/mg proteins. Also, in data set [4] (class symbols), the negative logarithm of the IC50 (pIC50) is ≥ 7.70. In data set [2], the “CLint Human” value was 0.2 μL/min/mg proteins.
